Measured values published in patent US11331271B2, “Buccal, sublingual and intranasal delivery of fospropofol” (The Johns Hopkins University, priority 2016, dated 2022).
Entries after “also recorded” stand apart in the source; their conditions may differ.

How the values were obtained:
[1] = Pharmacokinetic studies in rats: fospropofol and propofol in plasma after IV, PO or ID fospropofol; conditions: for F of fospropofol (vs 5 mg/kg IV) / F of propofol (vs 5 mg/kg IV fospropofol): rats
Protocol: Male Sprague-Dawley rats (Charles River, Md., USA) weighing 200-250 g were used, unless otherwise noted. Animals were housed in groups of three-inch suspended polycarbonate cages (18-inches long, 9-inches wide and 9-inches high) under a 12-h light/dark cycle. Food (Harlan/Teklab) and water (filtered and delivered via an automatic watering system) were provided ad libitum. All procedures were conducted in compliance with the laws, regulations and guidelines of the National Institutes of Health (NIH/PHS) and with approval from the local Animal Care and Use committee.
For animal studies, a fospropofol dosing solution was made by dissolving powder in water (for oral and intra-duodenal administration) or saline (for intravenous administration) into an administration volume of 1 or 2 mL/kg, as noted.
Male Sprague-Dawley rats (225-250 g) underwent implantation with indwelling jugular vein catheters for plasma sampling. Animals receiving intravenous (IV) drug administration also underwent femoral vein catheterization and, after full recovery were attached to an electronic infusion pump and administered vehicle or various concentrations of fospropofol in 1 mL total volume by gradual constant rate infusion over 10 min. Intraduodenal (ID) administration was via previously implanted catheters (HILLTOP Labs, PA) in a constant volume of 2 mL/kg body weight, by slow infusion. Oral administration (PO) was performed via a curved bulb-tipped feeding gavage tube attached to a syringe inserted carefully through the oesophagus via the side of the mouth of manually restrained rats using an administration volume of 1 mL/kg. On the day of testing, control blood samples were taken from the jugular vein prior to dosing of test compounds in conscious rats. In these studies, intravenous doses were based on previously reported behavioral and pharmacokinetic studies with fospropofol. The PO and ID doses were established based on preliminary experiments with behavioral observation, using higher doses based on lower expected oral bioavailability.
After fospropofol administration, blood samples (0.5 mL) were taken at 5, 15, 30, 45, 60, 120, 240 and 360 min post dose. An equivalent volume of blood taken from donor rats of the same strain was administered after each blood sample withdrawal, in an effort to maintain blood volume as previously described (Skrajnar, et al., 2009; Moghaddam, et al., 2002; Choi, et al., 2007). Approximately 0.05 mL of 200 mg/mL of sodium orthovanadate (SOV) solution was added to the heparinized blood collection tubes prior to blood collection to prevent ex vivo conversion via alkaline phosphatases (ALP). The blood samples were mixed, cooled and subsequently centrifuged at 3,000 rpm and 4° C. for 10 min within 30 min of collection. Plasma samples were stored at −20° C. until analysis.
For fospropofol analysis, fospropofol-d6 (internal standard prepared in 1.0 M ammonium acetate buffer) was added to the plasma samples (rat or human: 0.05 mL) and subsequently extracted using a solid phase extraction (SPE). The SPE cartridges were conditioned by gravity with methanol and 1.0 M ammonium acetate solution in water. The plasma samples with internal standard were loaded on the cartridges, washed with water and 10% methanol/water and eluted with methanol. The tubes were then evaporated under nitrogen and the residues reconstituted with 50/50 methanol/25 mM ammonium acetate in deionized water. The sample extract was then injected onto a reversed phase HPLC Zorbax Eclipse XDB-C18 column. The separated analytes were detected using tandem mass spectrometry (MS/MS) detection.

[2] = system: rat chronic constrictive injury model of neuropathic pain; assay: Neuropathic pain studies in rats (thermal hyperalgesia, withdrawal latency); type: in vivo; conditions: for alleviation of thermal hyperalgesia: 45-60 min post-dose; for time course of analgesic effect: tested 1, 2 and 4 h after dosing
Protocol: This study was performed as previously described (Vornov, et al., 2013). In brief, male Sprague-Dawley rats (200-250 g) were anesthetized with halothane. The common sciatic nerve on one hind limb was exposed by separating the biceps femoris from the gluteus superficialis. The nerve was subsequently isolated from the surrounding tissue and four ligatures (4.0 chromic gut) were tied loosely around it with about 1-mm spacing. On the other hind limb of the rat, the nerve was similarly isolated but no ligatures were placed, (sham surgery). Thermal pain sensitivity was evaluated using a plantar test apparatus according to previous methods (Hargreaves, et al., 1988). In brief, this involved applying a constant infrared stimulus to the plantar surface of the hind paw using a Basile Plantar apparatus (Ugo Basile, Vaarese, Italy). Withdrawal latency was measured as the time taken for the rat to withdraw its paw from the heat source to the nearest 0.1 s. The “difference score” was calculated by subtracting the average latency of the non-ligated versus ligated side. Animals were habituated to the test chambers (clear plastic compartment maintained in a quiet room) for several hours over 3-4 days, prior to any measurement. Baseline hyperalgesia was recorded 10-12 days post-surgery after the habituation. On test day, each animal received either fospropofol (50, 75 or 100 mg/kg) or vehicle (distilled water) via oral gavage in a volume of 2 mL/kg in a randomized and blinded fashion. Withdrawal latency measurements were then recorded five times for both the operated and sham hind paws of each rat starting from 45 to 60 min post dose. The final latency measurement represents a mean of the last four out of a total of five responses, each being taken at least 5 min apart on the same paw. The difference in response latency for each rat for each leg was calculated and used to determine the mean latency difference response time for each group.

[3] = Stability in rat plasma at −20° C.; type: in vitro ADME
Protocol: (§1) The SPE cartridges were conditioned by gravity with methanol and 1.0 M ammonium acetate solution in water. The plasma samples with internal standard were loaded on the cartridges, washed with water and 10% methanol/water and eluted with methanol. The tubes were then evaporated under nitrogen and the residues reconstituted with 50/50 methanol/25 mM ammonium acetate in deionized water. The sample extract was then injected onto a reversed phase HPLC Zorbax Eclipse XDB-C18 column. The separated analytes were detected using tandem mass spectrometry (MS/MS) detection. […] The assays were linear with correlation coefficient of (R^2)>0.99 over the range of 10-2,000 ng/mL for rat plasma and 5-1,000 ng/mL for human plasma.
(§2) In brief, 4-[tert-octyl] phenol, (internal standard) was added to the plasma samples (0.05 mL for rat or 0.2 mL for human) and extracted using a 3M Empore C-18-SD 4 mm SPE cartridge (Millipore, Billerica, Mass., USA). […] The final eluants (˜0.3 mL) were diluted with 0.3 mL of water, and injected onto an HPLC system equipped with a C-18 analytical column (5 μm, 150×3.9 mm) and fluorescence detector set at excitation and emission wave lengths of 275 and 310 nm, respectively. […] All rat and human study samples in this study were analyzed without exceeding the stability sample integrity during validation of the methods.

[4] = type: in vitro ADME
Protocol: as §1, §2

[5] = Intranasal fospropofol in rats: plasma and brain levels; type: in vivo, rat
[6] = Buccal delivery of fospropofol in monkeys: plasma and CSF levels; type: in vivo, monkey
Protocol: In this example, monkeys were dosed with 50 mg fospropofol by buccal administration. Plasma and CSF were collected before treatment (graphed as t=0), 15 minutes, 30 minutes, 1 hr and 2 hr. Samples were analyzed for propofol and fospropofol by LCMS.

[7] = system: Caco-2 cell monolayers; conditions: cited from earlier work
[8] = male, Sprague-Dawley, rat, plasma, 30 mg/kg
[9] = male, Sprague-Dawley, rat, plasma, 100 mg/kg
[10] = male, Sprague-Dawley, rat, plasma, iv, 5 mg/kg
[11] = male, Sprague-Dawley, rat, plasma, po, 20 mg/kg
[12] = male, Sprague-Dawley, rat, plasma, po, 100 mg/kg

`CC(C)c1cccc(C(C)C)c1OCOP(=O)(O)O` [fospropofol] gave an AUC(0-inf) [1, 8] of 50 ng·h/mL, an AUC(0-t) [1, 8] of 44 ng·h/mL and a Cmax [1, 8] of 170 ng/mL. For the same compound, the half-life [1, 8] was 12.6 min, the AUC(0-inf) [1, 9] was 650 ng·h/mL and the AUC(0-t) [1, 9] was 644 ng·h/mL. For the same compound, the Cmax [1, 9] was 3740 ng/mL, the half-life [1, 9] was 13.8 min and the AUC(0-inf) [1, 10] was 3150 ng·h/mL. The AUC(0-t) [1, 10] was 3150 ng·h/mL, the Cmax [1, 10] was 16300 ng/mL and the Vd [1, 10] was 1.02 L/kg. For the same compound, the clearance [1, 10] was 23 mL/min/kg, the half-life [1, 10] was 29.4 min and the AUC(0-inf) [1, 11] was 60 ng·h/mL. For the same compound, the AUC(0-t) [1, 11] was 50 ng·h/mL, the Cmax [1, 11] was 230 ng/mL and the half-life [1, 11] was 11.4 min. For the same compound, the AUC(0-inf) [1, 12] was 2180 ng·h/mL, the AUC(0-t) [1, 12] was 2160 ng·h/mL and the Cmax [1, 12] was 9230 ng/mL. For the same compound, the half-life [1, 12] was 29.4 min, the “F of fospropofol (vs 5 mg/kg IV)” value ([1]; fospropofol 20 mg/kg PO) was 0.448% and the “F of fospropofol (vs 5 mg/kg IV)” value ([1]; fospropofol 30 mg/kg ID) was 0.264%. The “F of fospropofol (vs 5 mg/kg IV)” value ([1]; fospropofol 100 mg/kg ID) was 1.03%, the “F of fospropofol (vs 5 mg/kg IV)” value ([1]; fospropofol 100 mg/kg PO) was 3.46% and the “alleviation of thermal hyperalgesia” value ([2]; 75 mg/kg PO) was “active in alleviating thermal hyperalgesia; also recorded: effective in reducing hyperalgesia”. The “time course of analgesic effect” value ([2]; 75 mg/kg PO) was “losing activity by 2 h”, the “time course of analgesic effect” value ([2]; 75 mg/kg PO, listed as Fospropofol) was “effective only when tested at 1 h” and the “alleviation of thermal hyperalgesia” value ([2]; 100 mg/kg PO) was “active in alleviating thermal hyperalgesia; also recorded: effective in reducing hyperalgesia”. The “absolute latency of the ligated side vs vehicle” value ([2]; 1 hour after oral fospropofol) was “dose dependent increase”, the “withdrawal latency on sham (non-ligated) side vs vehicle” value ([2]; PO fospropofol) was “no change in latencies; also recorded: did not change” and the “time stable at −20° C. in rat plasma” value [3] was 98 days. The “time stable at −20° C. in human plasma” value [4] was 464 days, the “fospropofol in plasma after intranasal fospropofol” value [5] was “appreciable plasma concentrations” and the “time of fospropofol peak in plasma” value ([6]; 50 mg buccal) was 30 to 60 min. The “fospropofol plasma level by 2 hr” value ([6]; 50 mg buccal, 2 hr) was “below the limit of quantification”, the concentration at 15 min ([6]; monkey, CSF, other: buccal, 50 mg buccal, 15 minutes, read-out: CSF fospropofol, one high point) was ~850 nM and the Cmax ([6]; monkey, plasma, 50 mg buccal) was ~150 nM.

In the case of `CC(C)c1cccc(C(C)C)c1O` [propofol, 2,6-diisopropylphenol], the bioavailability ([1]; male, Sprague-Dawley, rat, plasma) is reported as ~100%, the bioavailability ([1]; male, Sprague-Dawley, rat, plasma, po) is reported as 20 to 70% and the bioavailability [1, 12] is reported as ≥ 70%. For the same compound, the “F of propofol (vs 5 mg/kg IV fospropofol)” value ([1]; fospropofol 20 mg/kg PO) was 22.7%, the “F of propofol (vs 5 mg/kg IV fospropofol)” value ([1]; fospropofol 30 mg/kg ID) was 47.3% and the “F of propofol (vs 5 mg/kg IV fospropofol)” value ([1]; fospropofol 100 mg/kg ID) was 141%. The “F of propofol (vs 5 mg/kg IV fospropofol)” value ([1]; fospropofol 100 mg/kg PO) was 70.5%, the “time stable at −20° C. in rat plasma” value [3] was 65 days and the “time stable at −20° C. in human plasma” value [4] was 347 days. The “highest propofol level in plasma” value ([6]; 50 mg fospropofol buccal, at 2 hours) was “about 500 nM”, the “propofol in CSF” value ([6]; 50 mg fospropofol buccal, limit of quantitation 10 nM) was “only 2 samples are above the limit of quantitation” and the permeability [7] was “highly permeable”.
